This note sets out measurements from patent publication US20240043404A1 (AbbVie Inc., priority 2009, published 2024).

Structures are written as SMILES.

This assay relates to RS4;11 cells. The experiment in a line: RS4;11 cell viability assay (CellTiter Glo).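 Further: acute lymphoblastic leukemia line RS4,11, EC50 derived from percentage of viable cells after treatment relative to untreated controls, cell killing taken as a measure of Bcl-2 inhibition.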 The class given is cell-based, human. The following applies: Homo sapiens, RS4-11, 48 h, 50,000 cells per well, 10% human serum, 48 hours; read-out: RS4; 11 EC50 Values.
Description: The acute lymphoblastic leukemia (ALL) cell line RS4;11 was used as the primary human cell line to assess the cellular activity of Bcl-2 selective agents in vitro and their efficacy in vivo.
Cell cytotoxicity EC50 values were assessed using CellTiter Glo (Promega) according to the manufacturer's recommendations. The EC50 values were determined as a percentage of viable cells following treatment compared to the untreated control cells.
Take `CC1(C)CCC(CN2CCN(c3ccc(C(=O)NS(=O)(=O)c4ccc(OC[C@H]5CC[C@H](N6CCOCC6)CC5)c(Cl)c4)c(Oc4cnc5[nH]ccc5c4)c3)CC2)=C(c2ccc(Cl)cc2)C1` [Example 303, N-[(3-chloro-4-{[trans-4-(morpholin-4-yl)cyclohexyl]methoxy}phenyl)sulfonyl]-4-(4-{[2-(4-chlorophenyl)-4,4-dimethylcyclohex-1-en-1-yl]methyl}piperazin-1-yl)-2-(1H-pyrrolo[2,3-b]pyridin-5-yloxy)benzamide]: the EC50 was 47.8 nM.

Consider `CC1(C)CCC(CN2CCN(c3ccc(C(=O)NS(=O)(=O)c4ccc(NCCCN(Cc5cncs5)C5CC5)c([N+](=O)[O-])c4)c(Oc4cnc5[nH]ccc5c4)c3)CC2)=C(c2ccc(Cl)cc2)C1` [Example 304, 4-(4-{[2-(4-chlorophenyl)-4,4-dimethylcyclohex-1-en-1-yl]methyl}piperazin-1-yl)-N-{[4-({3-[cyclopropyl(1,3-thiazol-5-ylmethyl)amino]propyl}amino)-3-nitrophenyl]sulfonyl}-2-(1H-pyrrolo[2,3-b]pyridin-5-yloxy)benzamide], for which the EC50 was 298 nM.

With `CC1(C)CCC(CN2CCN(c3ccc(C(=O)NS(=O)(=O)c4ccc(OC[C@H]5CC[C@H](O)CC5)c(Cl)c4)c(Oc4cnc5[nH]ccc5c4)c3)CC2)=C(c2ccc(Cl)cc2)C1` [Example 305, N-({3-chloro-4-[(trans-4-hydroxycyclohexyl)methoxy]phenyl}sulfonyl)-4-(4-{[2-(4-chlorophenyl)-4,4-dimethylcyclohex-1-en-1-yl]methyl}piperazin-1-yl)-2-(1H-pyrrolo[2,3-b]pyridin-5-yloxy)benzamide], the EC50 was 32.5 nM.

Consider `CC1(C)CCC(CN2CCN(c3ccc(C(=O)NS(=O)(=O)c4ccc(NCC5CCOCC5)c(Cl)c4)c(Oc4cnc5[nH]ccc5c4)c3)CC2)=C(c2ccc(Cl)cc2)C1` [Example 306, 4-(4-{[2-(4-chlorophenyl)-4,4-dimethylcyclohex-1-en-1-yl]methyl}piperazin-1-yl)-N-({3-chloro-4-[(tetrahydro-2H-pyran-4-ylmethyl)amino]phenyl}sulfonyl)-2-(1H-pyrrolo[2,3-b]pyridin-5-yloxy)benzamide], for which the EC50 is 553 nM.

Regarding `CC1(C)CCC(CN2CCN(c3ccc(C(=O)NS(=O)(=O)c4ccc(OCC5(F)CCOCC5)c(C(F)(F)F)c4)c(Oc4cnc5[nH]ccc5c4)c3)CC2)=C(c2ccc(Cl)cc2)C1` [Example 307, 4-(4-{[2-(4-chlorophenyl)-4,4-dimethylcyclohex-1-en-1-yl]methyl}piperazin-1-yl)-N-({4-[(4-fluorotetrahydro-2H-pyran-4-yl)methoxy]-3-(trifluoromethyl)phenyl}sulfonyl)-2-(1H-pyrrolo[2,3-b]pyridin-5-yloxy)benzamide], the EC50 worked out at 128 nM.

`CC1(C)CCC(CN2CCN(c3ccc(C(=O)NS(=O)(=O)c4ccc(NCCCN(CC(F)(F)F)C5CC5)c([N+](=O)[O-])c4)c(Oc4cnc5[nH]ccc5c4)c3)CC2)=C(c2ccc(Cl)cc2)C1` [Example 308, 4-(4-{[2-(4-chlorophenyl)-4,4-dimethylcyclohex-1-en-1-yl]methyl}piperazin-1-yl)-N-{[4-({3-[cyclopropyl(2,2,2-trifluoroethyl)amino]propyl}amino)-3-nitrophenyl]sulfonyl}-2-(1H-pyrrolo[2,3-b]pyridin-5-yloxy)benzamide]: the EC50 was 257 nM.

On to `CC1(C)CCC(CN2CCN(c3ccc(C(=O)NS(=O)(=O)c4ccc(OCC5CCN(C6COC6)CC5)c(Cl)c4)c(Oc4cnc5[nH]ccc5c4)c3)CC2)=C(c2ccc(Cl)cc2)C1` [Example 309, N-[(3-chloro-4-{[1-(oxetan-3-yl)piperidin-4-yl]methoxy}phenyl)sulfonyl]-4-(4-{[2-(4-chlorophenyl)-4,4-dimethylcyclohex-1-en-1-yl]methyl}piperazin-1-yl)-2-(1H-pyrrolo[2,3-b]pyridin-5-yloxy)benzamide], for which the EC50 amounted to 52.4 nM.

For `CC1(C)CCC(CN2CCN(c3ccc(C(=O)NS(=O)(=O)c4cc(F)c(OCC5(F)CCOCC5)c(F)c4)c(Oc4cnc5[nH]ccc5c4)c3)CC2)=C(c2ccc(Cl)cc2)C1` [Example 310, 4-(4-{[2-(4-chlorophenyl)-4,4-dimethylcyclohex-1-en-1-yl]methyl}piperazin-1-yl)-N-({3,5-difluoro-4-[(4-fluorotetrahydro-2H-pyran-4-yl)methoxy]phenyl}sulfonyl)-2-(1H-pyrrolo[2,3-b]pyridin-5-yloxy)benzamide], the EC50 is above 1000 nM.

In the case of `CC1(C)CCC(CN2CCN(c3ccc(C(=O)NS(=O)(=O)c4ccc(NCCCN(C5CC5)C5COC5)c([N+](=O)[O-])c4)c(Oc4cnc5[nH]ccc5c4)c3)CC2)=C(c2ccc(Cl)cc2)C1` [Example 311, 4-(4-{[2-(4-chlorophenyl)-4,4-dimethylcyclohex-1-en-1-yl]methyl}piperazin-1-yl)-N-{[4-({3-[cyclopropyl(oxetan-3-yl)amino]propyl}amino)-3-nitrophenyl]sulfonyl}-2-(1H-pyrrolo[2,3-b]pyridin-5-yloxy)benzamide], the EC50 amounted to 35.8 nM.

On to `CN1CCC[C@H]1C(=O)N1CCC(COc2ccc(S(=O)(=O)NC(=O)c3ccc(N4CCN(CC5=C(c6ccc(Cl)cc6)CC(C)(C)CC5)CC4)cc3Oc3cnc4[nH]ccc4c3)cc2Cl)CC1` [Example 312, N-[(3-chloro-4-{[1-(1-methyl-L-prolyl)piperidin-4-yl]methoxy}phenyl)sulfonyl]-4-(4-{[2-(4-chlorophenyl)-4,4-dimethylcyclohex-1-en-1-yl]methyl}piperazin-1-yl)-2-(1H-pyrrolo[2,3-b]pyridin-5-yloxy)benzamide], for which the EC50 came out at 16.2 nM.

Take `CC1(C)CCC(CN2CCN(c3ccc(C(=O)NS(=O)(=O)c4cc(F)c(F)c(OCC5(F)CCOCC5)c4)c(Oc4cnc5[nH]ccc5c4)c3)CC2)=C(c2ccc(Cl)cc2)C1` [Example 313, 4-(4-{[2-(4-chlorophenyl)-4,4-dimethylcyclohex-1-en-1-yl]methyl}piperazin-1-yl)-N-({3,4-difluoro-5-[(4-fluorotetrahydro-2H-pyran-4-yl)methoxy]phenyl}sulfonyl)-2-(1H-pyrrolo[2,3-b]pyridin-5-yloxy)benzamide]: the EC50 was above 1000 nM.

For the molecule `CC1(C)CCC(CN2CCN(c3ccc(C(=O)NS(=O)(=O)c4cnc(OC[C@@H]5CN(C6CC6)CCO5)c(Cl)c4)c(Oc4cnc5[nH]ccc5c4)c3)CC2)=C(c2ccc(Cl)cc2)C1` [Example 314, N-[(5-chloro-6-{[(2S)-4-cyclopropylmorpholin-2-yl]methoxy}pyridin-3-yl)sulfonyl]-4-(4-{[2-(4-chlorophenyl)-4,4-dimethylcyclohex-1-en-1-yl]methyl}piperazin-1-yl)-2-(1H-pyrrolo[2,3-b]pyridin-5-yloxy)benzamide], the EC50 turned out to be 660 nM.

Turning to `CC1(C)CCC(CC2CCN(c3ccc(C(=O)NS(=O)(=O)c4ccc(NCC5CCOCC5)c([N+](=O)[O-])c4)c(Oc4cnc5[nH]ccc5c4)c3)CC2)=C(c2ccc(Cl)cc2)C1` [Example 315, 4-(4-{[2-(4-chlorophenyl)-4,4-dimethylcyclohex-1-en-1-yl]methyl}piperidin-1-yl)-N-({3-nitro-4-[(tetrahydro-2H-pyran-4-ylmethyl)amino]phenyl}sulfonyl)-2-(1H-pyrrolo[2,3-b]pyridin-5-yloxy)benzamide], the EC50 came to 210 nM.

In the case of `CC1(C)CCC(CC2CCN(c3ccc(C(=O)NS(=O)(=O)c4ccc(OCC5CCOCC5)c(Cl)c4)c(Oc4cnc5[nH]ccc5c4)c3)CC2)=C(c2ccc(Cl)cc2)C1` [Example 316, 4-(4-{[2-(4-chlorophenyl)-4,4-dimethylcyclohex-1-en-1-yl]methyl}piperidin-1-yl)-N-{[3-chloro-4-(tetrahydro-2H-pyran-4-ylmethoxy)phenyl]sulfonyl}-2-(1H-pyrrolo[2,3-b]pyridin-5-yloxy)benzamide], the EC50 is above 1000 nM.

Consider `COC(=O)N1CCOC(CNc2ccc(S(=O)(=O)NC(=O)c3ccc(N4CCN(CC5=C(c6ccc(Cl)cc6)CC(C)(C)CC5)CC4)cc3Oc3cnc4[nH]ccc4c3)cc2[N+](=O)[O-])C1` (stereo not drawn) [Example 317, methyl 2-{[(4-{[4-(4-{[2-(4-chlorophenyl)-4,4-dimethylcyclohex-1-en-1-yl]methyl}piperazin-1-yl)-2-(1H-pyrrolo[2,3-b]pyridin-5-yloxy)benzoyl]sulfamoyl}-2-nitrophenyl)amino]methyl}morpholine-4-carboxylate], for which the EC50 is 13.3 nM.

Consider `CCN(C)C(=O)N1CCOC(CNc2ccc(S(=O)(=O)NC(=O)c3ccc(N4CCN(CC5=C(c6ccc(Cl)cc6)CC(C)(C)CC5)CC4)cc3Oc3cnc4[nH]ccc4c3)cc2[N+](=O)[O-])C1` (stereo not drawn) [Example 318, 2-{[(4-{[4-(4-{[2-(4-chlorophenyl)-4,4-dimethylcyclohex-1-en-1-yl]methyl}piperazin-1-yl)-2-(1H-pyrrolo[2,3-b]pyridin-5-yloxy)benzoyl]sulfamoyl}-2-nitrophenyl)amino]methyl}-N-ethyl-N-methylmorpholine-4-carboxamide], for which the EC50 worked out at 11.6 nM.

In the case of `CC1(C)CCC(CN2CCN(c3ccc(C(=O)NS(=O)(=O)c4ccc(NCC5CN(S(C)(=O)=O)CCO5)c([N+](=O)[O-])c4)c(Oc4cnc5[nH]ccc5c4)c3)CC2)=C(c2ccc(Cl)cc2)C1` (stereo not drawn) [Example 319, 4-(4-{[2-(4-chlorophenyl)-4,4-dimethylcyclohex-1-en-1-yl]methyl}piperazin-1-yl)-N-{[4-({[4-(methylsulfonyl)morpholin-2-yl]methyl}amino)-3-nitrophenyl]sulfonyl}-2-(1H-pyrrolo[2,3-b]pyridin-5-yloxy)benzamide], the EC50 was determined as 4.5 nM.

Regarding `CC1(C)CCC(CN2CCN(c3ccc(C(=O)NS(=O)(=O)c4ccc(NCCCN(C5CCC5)C5CC5)c([N+](=O)[O-])c4)c(Oc4cnc5[nH]ccc5c4)c3)CC2)=C(c2ccc(Cl)cc2)C1` [Example 320, 4-(4-{[2-(4-chlorophenyl)-4,4-dimethylcyclohex-1-en-1-yl]methyl}piperazin-1-yl)-N-{[4-({3-[cyclobutyl(cyclopropyl)amino]propyl}amino)-3-nitrophenyl]sulfonyl}-2-(1H-pyrrolo[2,3-b]pyridin-5-yloxy)benzamide], the EC50 was 51 nM.
